Assay results from the NIST ThermoML archive (doi:10.1016/j.fluid.2006.09.025).

Test: osmotic coefficient (dimensionless); mn = molality of the nth substance listed, in mol/kg
Settings: 298.15 K, Liquid, isopiestic method

CCCC[N+](CC)(CC)CC.[I-] [butyltriethylammonium iodide] + O
Settings | osmotic coefficient
m1 = 0.0475 | 0.9775
m1 = 0.0571 | 0.9735
m1 = 0.076 | 0.9668
m1 = 0.0898 | 0.9582
m1 = 0.0991 | 0.9545
m1 = 0.1499 | 0.94
m1 = 0.1571 | 0.93
m1 = 0.1638 | 0.9298
m1 = 0.1729 | 0.9266
m1 = 0.189 | 0.9199
m1 = 0.2281 | 0.9038
m1 = 0.293 | 0.8831
m1 = 0.3288 | 0.8677
m1 = 0.38 | 0.8544
m1 = 0.4288 | 0.837
m1 = 0.435 | 0.834
m1 = 0.4582 | 0.824
m1 = 0.5067 | 0.795
m1 = 0.5888 | 0.77
m1 = 0.7326 | 0.708
m1 = 0.7462 | 0.695
m1 = 0.76 | 0.691
m1 = 0.855 | 0.655
m1 = 0.9926 | 0.606
m1 = 1.093 | 0.569
m1 = 1.132 | 0.562
m1 = 1.178 | 0.554
m1 = 1.305 | 0.523
m1 = 1.503 | 0.481
m1 = 1.645 | 0.456
m1 = 1.681 | 0.45
m1 = 1.738 | 0.439
m1 = 1.782 | 0.433
m1 = 1.811 | 0.428

CCCCCCC[N+](CC)(CC)CC.[I-] [heptyltriethylammonium iodide] + O
Settings | osmotic coefficient
m1 = 0.0575 | 0.8694
m1 = 0.077 | 0.84
m1 = 0.0876 | 0.829
m1 = 0.1022 | 0.815
m1 = 0.1082 | 0.805
m1 = 0.1205 | 0.787
m1 = 0.1533 | 0.757
m1 = 0.1727 | 0.742
m1 = 0.175 | 0.736
m1 = 0.1805 | 0.723
m1 = 0.2592 | 0.67
m1 = 0.2917 | 0.642
m1 = 0.3136 | 0.635
m1 = 0.3583 | 0.614
m1 = 0.4282 | 0.58
m1 = 0.4477 | 0.577
m1 = 0.4858 | 0.553
m1 = 0.5029 | 0.548
m1 = 0.5121 | 0.54
m1 = 0.5894 | 0.52
m1 = 0.6973 | 0.486
m1 = 0.787 | 0.45
m1 = 0.8401 | 0.434
m1 = 0.89 | 0.427
m1 = 1.105 | 0.384
m1 = 1.341 | 0.34
m1 = 1.504 | 0.325
m1 = 1.803 | 0.297
m1 = 1.921 | 0.289
m1 = 2.205 | 0.263
m1 = 2.515 | 0.253
m1 = 2.79 | 0.247
m1 = 2.96 | 0.24
m1 = 3 | 0.242

CCCCCC[N+](CC)(CC)CC.[I-] [hexyltriethylammonium iodide] + O
Settings | osmotic coefficient
m1 = 0.0542 | 0.9221
m1 = 0.0712 | 0.9085
m1 = 0.0797 | 0.9098
m1 = 0.0926 | 0.8987
m1 = 0.0971 | 0.8963
m1 = 0.107 | 0.8864
m1 = 0.1332 | 0.8718
m1 = 0.1502 | 0.8528
m1 = 0.1517 | 0.8493
m1 = 0.153 | 0.8537
m1 = 0.2121 | 0.819
m1 = 0.232 | 0.808
m1 = 0.2494 | 0.798
m1 = 0.2836 | 0.775
m1 = 0.3308 | 0.751
m1 = 0.3473 | 0.744
m1 = 0.3651 | 0.737
m1 = 0.3804 | 0.724
m1 = 0.3878 | 0.713
m1 = 0.4518 | 0.678
m1 = 0.5224 | 0.648
m1 = 0.5588 | 0.633
m1 = 0.5839 | 0.624
m1 = 0.6237 | 0.609
m1 = 0.7289 | 0.582
m1 = 0.8228 | 0.555
m1 = 0.9203 | 0.531
m1 = 1.101 | 0.487
m1 = 1.171 | 0.475
m1 = 1.275 | 0.454
m1 = 1.512 | 0.421
m1 = 1.84 | 0.375
m1 = 1.94 | 0.366
m1 = 2.04 | 0.356
m1 = 2.24 | 0.337
m1 = 2.344 | 0.329

CC[N+](C)(CC)CC.[I-] [methyltriethylammonium iodide] + O
Settings | osmotic coefficient
m1 = 0.0478 | 0.739
m1 = 0.0576 | 0.714
m1 = 0.0766 | 0.673
m1 = 0.0902 | 0.648
m1 = 0.0995 | 0.632
m1 = 0.1505 | 0.564
m1 = 0.1558 | 0.556
m1 = 0.1631 | 0.548
m1 = 0.1721 | 0.539
m1 = 0.1879 | 0.523
m1 = 0.2254 | 0.488
m1 = 0.2898 | 0.44
m1 = 0.324 | 0.421
m1 = 0.3742 | 0.391
m1 = 0.4177 | 0.371
m1 = 0.4237 | 0.368
m1 = 0.4447 | 0.36
m1 = 0.4801 | 0.347
m1 = 0.5528 | 0.321
m1 = 0.6505 | 0.294
m1 = 0.6561 | 0.295
m1 = 0.6693 | 0.291
m1 = 0.7286 | 0.28
m1 = 0.8032 | 0.265
m1 = 0.8482 | 0.259
m1 = 0.8851 | 0.255
m1 = 0.9205 | 0.249
m1 = 0.9981 | 0.241
m1 = 1.101 | 0.232
m1 = 1.2 | 0.226
m1 = 1.22 | 0.224
m1 = 1.25 | 0.223
m1 = 1.29 | 0.22
m1 = 1.37 | 0.219

CCCCC[N+](CC)(CC)CC.[I-] [pentyltriethylammonium iodide] + O
Settings | osmotic coefficient
m1 = 0.0539 | 0.9283
m1 = 0.0703 | 0.9203
m1 = 0.0798 | 0.9092
m1 = 0.0922 | 0.903
m1 = 0.0976 | 0.8923
m1 = 0.1065 | 0.891
m1 = 0.132 | 0.8799
m1 = 0.1471 | 0.8712
m1 = 0.1482 | 0.8694
m1 = 0.1501 | 0.8697
m1 = 0.2076 | 0.8364
m1 = 0.2284 | 0.821
m1 = 0.2454 | 0.811
m1 = 0.2742 | 0.802
m1 = 0.3148 | 0.789
m1 = 0.3295 | 0.784
m1 = 0.3456 | 0.778
m1 = 0.3579 | 0.77
m1 = 0.3614 | 0.765
m1 = 0.4108 | 0.746
m1 = 0.4718 | 0.718
m1 = 0.498 | 0.711
m1 = 0.514 | 0.709
m1 = 0.5434 | 0.699
m1 = 0.6238 | 0.68
m1 = 0.6938 | 0.658
m1 = 0.7814 | 0.625
m1 = 0.9005 | 0.595
m1 = 0.9578 | 0.58
m1 = 1.015 | 0.571
m1 = 1.199 | 0.531
m1 = 1.359 | 0.508
m1 = 1.465 | 0.485
m1 = 1.549 | 0.468
m1 = 1.688 | 0.447

CC[N+](CC)(CC)CC.[I-] [tetraethylammonium iodide] + O
Settings | osmotic coefficient
m1 = 0.0519 | 0.8954
m1 = 0.0633 | 0.8781
m1 = 0.086 | 0.8544
m1 = 0.1019 | 0.8443
m1 = 0.1134 | 0.834
m1 = 0.1748 | 0.806
m1 = 0.1826 | 0.8
m1 = 0.1916 | 0.795
m1 = 0.2018 | 0.794
m1 = 0.2218 | 0.784
m1 = 0.2718 | 0.758
m1 = 0.3586 | 0.722
m1 = 0.3999 | 0.714
m1 = 0.4738 | 0.685
m1 = 0.5329 | 0.674
m1 = 0.5415 | 0.67
m1 = 0.5698 | 0.662
m1 = 0.6153 | 0.655
m1 = 0.7181 | 0.631
m1 = 0.8456 | 0.613
m1 = 0.8512 | 0.609
m1 = 0.8671 | 0.606
m1 = 0.9377 | 0.597
m1 = 1.032 | 0.583
m1 = 1.076 | 0.578
m1 = 1.109 | 0.574
m1 = 1.151 | 0.566
m1 = 1.224 | 0.558
m1 = 1.309 | 0.553
m1 = 1.373 | 0.546
m1 = 1.391 | 0.543
m1 = 1.403 | 0.544
m1 = 1.429 | 0.54
m1 = 1.442 | 0.537

CC[N+](CC)(CC)C(C)C.[I-] [triethylisopropylammonium iodide] + O
Settings | osmotic coefficient
m1 = 0.0475 | 0.9777
m1 = 0.057 | 0.9749
m1 = 0.0757 | 0.9713
m1 = 0.0889 | 0.968
m1 = 0.0981 | 0.9643
m1 = 0.1471 | 0.9579
m1 = 0.1528 | 0.9563
m1 = 0.1597 | 0.9537
m1 = 0.1682 | 0.9525
m1 = 0.1838 | 0.9459
m1 = 0.2194 | 0.9398
m1 = 0.2793 | 0.9267
m1 = 0.3108 | 0.918
m1 = 0.3581 | 0.9067
m1 = 0.408 | 0.88
m1 = 0.4103 | 0.884
m1 = 0.4322 | 0.8735
m1 = 0.4691 | 0.8589
m1 = 0.5492 | 0.825
m1 = 0.6807 | 0.762
m1 = 0.6907 | 0.751
m1 = 0.7103 | 0.74
m1 = 0.8103 | 0.691
m1 = 0.9083 | 0.662
m1 = 0.9858 | 0.631
m1 = 1.081 | 0.589
m1 = 1.111 | 0.587
m1 = 1.22 | 0.559
m1 = 1.326 | 0.546
m1 = 1.388 | 0.541
m1 = 1.402 | 0.539
m1 = 1.428 | 0.535
m1 = 1.448 | 0.533
m1 = 1.462 | 0.53
